{"source": "ChEMBL document CHEMBL5257060", "about": "“Trust Your Gut: Strategies and Tactics for Intestinally Restricted Drugs” (ACS Med Chem Lett, 2023)", "key": {"[1]": {"target": "T1, Sodium/hydrogen exchanger 3 (Homo sapiens, UniProt P48764)", "T1 sequence (P48764 whole entry)": "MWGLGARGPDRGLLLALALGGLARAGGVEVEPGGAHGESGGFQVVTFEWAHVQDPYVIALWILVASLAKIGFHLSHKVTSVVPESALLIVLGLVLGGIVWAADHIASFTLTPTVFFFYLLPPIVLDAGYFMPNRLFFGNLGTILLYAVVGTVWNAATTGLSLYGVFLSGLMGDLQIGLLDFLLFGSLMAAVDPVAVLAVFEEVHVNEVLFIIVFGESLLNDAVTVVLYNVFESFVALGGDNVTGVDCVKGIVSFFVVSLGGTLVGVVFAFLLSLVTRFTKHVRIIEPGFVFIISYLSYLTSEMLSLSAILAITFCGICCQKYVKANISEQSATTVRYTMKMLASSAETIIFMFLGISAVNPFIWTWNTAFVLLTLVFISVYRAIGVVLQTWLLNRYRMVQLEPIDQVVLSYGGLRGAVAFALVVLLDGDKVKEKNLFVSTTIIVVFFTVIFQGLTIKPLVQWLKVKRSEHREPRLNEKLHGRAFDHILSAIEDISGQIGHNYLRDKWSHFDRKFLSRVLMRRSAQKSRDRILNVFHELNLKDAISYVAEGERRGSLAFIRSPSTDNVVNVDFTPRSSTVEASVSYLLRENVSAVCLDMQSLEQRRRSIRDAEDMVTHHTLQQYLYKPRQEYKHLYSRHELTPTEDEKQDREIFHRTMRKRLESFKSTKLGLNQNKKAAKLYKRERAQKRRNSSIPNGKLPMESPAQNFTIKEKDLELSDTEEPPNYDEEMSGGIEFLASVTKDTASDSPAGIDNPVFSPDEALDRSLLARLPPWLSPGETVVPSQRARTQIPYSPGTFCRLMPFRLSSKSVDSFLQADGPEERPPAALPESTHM", "assay": "Inhibition of human NHE3"}, "[2]": {"assay": "Drug recovery in feces of rats at 30 mg/kg, po", "type": "ADME, organism-based", "settings": "rat, faeces, read-out: Drug recovery"}, "[3]": {"assay": "Cmax in rat at 30 mg/kg, po", "type": "ADME, organism-based", "design": "dose 30 mg/kg, route po", "settings": "in vivo"}, "[4]": {"target": "T2, G-protein coupled bile acid receptor 1 (Mus musculus, UniProt Q80SS6)", "T2 sequence (Q80SS6 whole entry)": "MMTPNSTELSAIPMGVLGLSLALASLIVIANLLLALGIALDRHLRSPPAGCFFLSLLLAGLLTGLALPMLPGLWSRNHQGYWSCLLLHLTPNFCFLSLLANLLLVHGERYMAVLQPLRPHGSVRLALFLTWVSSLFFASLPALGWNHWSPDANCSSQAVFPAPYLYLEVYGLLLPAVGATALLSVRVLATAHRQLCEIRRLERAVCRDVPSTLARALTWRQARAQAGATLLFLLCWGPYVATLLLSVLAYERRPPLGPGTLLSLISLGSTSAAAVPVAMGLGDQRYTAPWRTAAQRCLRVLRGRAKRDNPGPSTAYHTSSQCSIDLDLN", "assay": "Inhibition of mouse TGR5"}, "[5]": {"assay": "AUC in mouse at 5 mg/kg, po", "type": "ADME, organism-based", "design": "dose 5 mg/kg, route po", "settings": "in vivo"}, "[6]": {"assay": "Drug recovery in feces of mouse at 5 mg/kg, po", "type": "ADME, organism-based", "settings": "faeces, read-out: Drug recovery"}, "[7]": {"assay": "Apparent permeability across apical to basolateral side in human Caco-2 cells", "type": "ADME, cell-based"}, "[8]": {"assay": "Drug concentration in mouse intestine at 30 mg/kg, po measured for 2 hr", "type": "ADME, organism-based", "settings": "read-out: Ct"}, "[9]": {"assay": "Drug concentration in mouse plasma at 30 mg/kg, po measured for 2 hr", "type": "ADME, organism-based"}, "[10]": {"assay": "Apparent permeability across apical to basolateral side in human Caco-2 cells by PAMPA assay", "type": "ADME, cell-based"}, "[11]": {"target": "Dipeptidyl peptidase 4 (Mus musculus, UniProt P28843)", "sequence (P28843 whole entry)": "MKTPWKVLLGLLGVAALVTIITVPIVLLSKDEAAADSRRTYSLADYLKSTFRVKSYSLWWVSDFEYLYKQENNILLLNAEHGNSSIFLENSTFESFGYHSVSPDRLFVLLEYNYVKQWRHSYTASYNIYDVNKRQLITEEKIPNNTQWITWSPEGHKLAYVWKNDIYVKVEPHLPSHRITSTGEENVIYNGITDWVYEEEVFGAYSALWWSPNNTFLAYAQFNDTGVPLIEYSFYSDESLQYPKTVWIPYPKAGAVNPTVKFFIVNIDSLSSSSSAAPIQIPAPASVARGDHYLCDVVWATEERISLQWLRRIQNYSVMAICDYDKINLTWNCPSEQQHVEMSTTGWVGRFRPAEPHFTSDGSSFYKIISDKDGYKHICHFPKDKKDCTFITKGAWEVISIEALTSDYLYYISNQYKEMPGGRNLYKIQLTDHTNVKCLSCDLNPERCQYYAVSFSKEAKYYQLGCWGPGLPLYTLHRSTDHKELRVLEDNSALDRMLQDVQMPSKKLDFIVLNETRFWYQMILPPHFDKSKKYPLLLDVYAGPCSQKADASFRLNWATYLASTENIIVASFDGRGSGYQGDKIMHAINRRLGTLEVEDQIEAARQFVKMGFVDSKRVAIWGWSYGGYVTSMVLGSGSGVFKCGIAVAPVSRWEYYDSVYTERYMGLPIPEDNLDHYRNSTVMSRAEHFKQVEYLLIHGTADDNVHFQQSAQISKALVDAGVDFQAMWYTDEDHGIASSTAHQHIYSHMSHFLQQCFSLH", "assay": "Inhibition of mouse DPP4"}, "[12]": {"assay": "Cmax in ICR mouse plasma at 150 mg/kg, po measured at 1 hr post dose", "type": "ADME, organism-based", "design": "time 1 hrs, dose 150 mg/kg, route po"}, "[13]": {"assay": "Cmax in mouse plasma at 10 mg/kg, po", "type": "ADME, organism-based", "design": "dose 10 mg/kg, route po"}, "[14]": {"assay": "Cmax in mouse colon at 10 mg/kg, po", "type": "ADME, organism-based", "design": "dose 10 mg/kg, route po"}, "[15]": {"assay": "Apparent permeability in human Caco-2 cells", "type": "ADME, cell-based"}, "[16]": {"assay": "Efflux ratio of apparent permeability in human Caco-2 cells", "type": "ADME, cell-based"}, "[17]": {"assay": "Cmax in mouse colon content at 10 mg/kg, po", "type": "ADME, organism-based", "design": "dose 10 mg/kg, route po"}, "[18]": {"assay": "Cmax in rat plasma at 10 mg/kg, po", "type": "ADME, organism-based", "design": "dose 10 mg/kg, route po"}, "[19]": {"assay": "Drug recovery in feces of rats at 20 mg, po", "type": "ADME", "settings": "rat, faeces, read-out: Drug recovery"}}, "data": [{"smiles": "CN1Cc2c(Cl)cc(Cl)cc2[C@@H](c2cccc(S(=O)(=O)NCCOCCOCCNC(=O)NCCCCNC(=O)NCCOCCOCCNS(=O)(=O)c3cccc([C@@H]4CN(C)Cc5c(Cl)cc(Cl)cc54)c3)c2)C1", "values": [{"measurement": "IC50", "setting": "[1]", "value": 0.0005, "unit": "µM"}, {"measurement": "dose excreted", "setting": "[2]", "value": 92, "unit": "%"}, {"measurement": "Cmax", "setting": "[3]", "value": "< 0.5", "unit": "ng/mL"}]}, {"smiles": "CO[C@@H]1C[C@@H]2C[C@H](O)CC[C@]2(C)[C@H]2CC[C@]3(C)[C@@H]([C@H](C)CCC(=O)N(C)C[C@H](O)[C@@H](O)[C@H](O)[C@H](O)CO)CC[C@H]3[C@H]12", "values": [{"measurement": "EC50", "setting": "[4]", "value": 0.0623, "unit": "µM"}]}, {"smiles": "CO[C@@H]1CC[C@@]2(C)[C@H](CC(OS(=O)(=O)[O-])[C@@H]3[C@@H]2CC[C@]2(C)[C@@H]([C@H](C)CCc4nnn[nH]4)CC[C@@H]32)C1.[Na+]", "note": "(some centres not stated)", "values": [{"measurement": "AUC", "setting": "[5]", "value": 4840, "unit": "ng·h/mL"}, {"measurement": "dose excreted", "setting": "[6]", "value": 89, "unit": "%"}, {"measurement": "Papp A→B", "setting": "[7]", "value": 0.4, "unit": "×10⁻⁶ cm/s"}]}, {"smiles": "Cc1cc(C)c(S(=O)(=O)N(CCc2cccc(Br)c2)Cc2ccc(-c3cccc(S(C)(=O)=O)c3)cc2)c(C)c1", "values": [{"measurement": "concentration at 2 h", "setting": "[8]", "value": 30, "unit": "µM"}, {"measurement": "concentration at 2 h", "setting": "[9]", "value": 0.006, "unit": "µM"}]}, {"smiles": "CC#CCn1c(N2CCC[C@H](NC(=O)CCOCCOCCOCCOCCOCCOCCN(C)C(=O)CCc3cc(Cl)c(Oc4ccncc4C(=O)N4CCN(C5CC5)c5ccccc54)cc3Cl)C2)nc2c1c(=O)n(Cc1nc(C)c3ccccc3n1)c(=O)n2C", "values": [{"measurement": "EC50", "setting": "[4]", "value": 0.017, "unit": "µM"}, {"measurement": "Papp A→B", "setting": "[10]", "value": 0.03, "unit": "×10⁻⁶ cm/s"}, {"measurement": "IC50", "setting": "[11]", "value": 70, "unit": "µM"}, {"measurement": "Cmax", "setting": "[12]", "value": 101, "unit": "ng/mL"}]}, {"smiles": "CN(CC[N+](C)(C)C)C(=O)CCc1cc(Cl)c(Oc2ccsc2C(=O)N2CCN(C3CC3)c3ccccc32)cc1Cl.O=C([O-])C(F)(F)F", "values": [{"measurement": "Papp A→B", "setting": "[7]", "value": 0.06, "unit": "×10⁻⁶ cm/s"}]}, {"smiles": "Cc1cc(Nc2cc3ncccc3c(NC3C[C@H]4CC[C@@H](C3)N4CCC#N)n2)n[nH]1", "note": "(some centres not stated)", "values": [{"measurement": "Cmax", "setting": "[13]", "value": 0.003, "unit": "µM"}, {"measurement": "Cmax", "setting": "[14]", "value": 9.17, "unit": "µM"}, {"measurement": "Papp", "setting": "[15]", "value": 1.17, "unit": "×10⁻⁶ cm/s"}, {"measurement": "efflux ratio", "setting": "[16]", "value": 32.5}]}, {"smiles": "Cc1cccc(Oc2cc(Oc3cccc(C)n3)cc(Oc3cccc(C)n3)c2)n1", "note": "[AMELENODOR]", "values": [{"measurement": "Cmax", "setting": "[17]", "value": "1e+07", "unit": "ng/g"}, {"measurement": "Cmax", "setting": "[14]", "value": 150000, "unit": "ng/g"}, {"measurement": "Cmax", "setting": "[18]", "value": 57, "unit": "ng/mL"}]}, {"smiles": "CCCCC1(CCCC)CS(=O)(=O)c2ccc(N(C)C)cc2[C@@H](c2ccc(OCc3ccc(C[N+]45CCN(CC4)CC5)cc3)cc2)[C@H]1O", "note": "[MARALIXIBAT]", "values": [{"measurement": "dose excreted", "setting": "[19]", "value": 94, "unit": "%"}]}]}
